Values after ≈ are worked out from the molar mass of the structure shown. Like-named read-outs stand apart in the source and are kept apart here.
Assays:
Assay type in all cases: cell-based
A. fumigatus (A65) = test: MIC90 growth inhibition of molds (EUCAST), A. fumigatus (A65); conditions: Aspergillus fumigatus, RPMI 1640, 2% glucose, read by eye and microscopically
Method: Determination of MICs (minimal inhibitory concentration) against Candida species was carried out according to the European Committee of Antifungal Susceptibility Testing. Concentration of yeast cells was determined by photometer and adjusted to a turbidity of 0.5 according to McFarland standard. […] Growth inhibition of molds was determined by eye and microscopically, following EUCAST guidelines. […] All assays were carried out twice.

A. fumigatus (R7) = test: MIC90 growth inhibition of molds (EUCAST), A. fumigatus (R7); conditions: Aspergillus fumigatus
Method: (§1) Determination of MICs (minimal inhibitory concentration) against Candida species was carried out according to the European Committee of Antifungal Susceptibility Testing. Concentration of yeast cells was determined by photometer and adjusted to a turbidity of 0.5 according to McFarland standard. MIC90 was determined by microdilution plate reader (Sunrise Tecan) at 450 nm, after 24 h incubation at 37°C. MIC90 was defined as the minimal concentration of chemical causing 90% growth inhibition, respectively. Growth inhibition of molds was determined by eye and microscopically, following EUCAST guidelines. All substances were dissolved in DMSO and diluted in RPMI 1640 medium, containing 2% glucose. All assays were carried out twice.

R. microsporus = test: MIC90 growth inhibition of molds (EUCAST), R. microsporus; conditions: Rhizopus microsporus
Method: as §1

R. arrhizus (oryzae) = test: MIC90 growth inhibition of molds (EUCAST), R. arrhizus (oryzae); conditions: Rhizopus arrhizus
Method: as §1

Yarrowia lipolytica = test: MIC100 microdilution assay against Yarrowia lipolytica
Method: In previous research we found a good correlation between MIC values against Yarrowia lipolytica and pathogenic Candida species.
Determination of MICs against Yarrowia lipolytica (DSMZ, Braunschweig, Germany) was carried out according to lit. Yarrowia lipolytica was cultivated in AC‐agar (Sigma Aldrich). Concentration of yeast cells was determined by photometer and adjusted to a turbidity of 0.5 according to McFarland standard at 600 nm. All substances were dissolved in DMSO or methanol.
Determination of MICs (minimal inhibitory concentration) against Yarrowia lipolytica was carried out according to Lit.^[13] Concentration of yeast cells was determined by photometer and adjusted to a turbitity of 0.5 according to McFarland Standard.

C. glabrata = test: MIC90 microdilution (EUCAST), C. glabrata; conditions: Nakaseomyces glabratus, 24 h
Method: as §1

A. fumigatus (R16) = test: MIC90 growth inhibition of molds (EUCAST), A. fumigatus (R16); conditions: Aspergillus fumigatus
Method: as §1

C. krusei = test: MIC90 microdilution (EUCAST), C. krusei; conditions: Pichia kudriavzevii, 24 h
Method: as §1

C. albicans = test: MIC90 microdilution (EUCAST), C. albicans; conditions: Candida albicans, 24 h
Method: as §1

[1] = MTT cytotoxicity assay against HL 60 cells; conditions: human, HL-60 cells (human leukemia cells); HL 60 cell line; MTT assay; read-out: IC50 cytotoxicity
Method: The cytotoxicity of the active compounds was checked in an MTT assay against human HL 60 cells. […] Although, this corresponds to the MIC range that would be needed in treatment, the values are within the range observed for commonly used antimycotics such as amorolfine and posaconazole. All active compounds were evaluated for their biopharmaceutical behavior and drug‐likeness using the online program SwissADME [26] and should show oral bioavailability according to the Lipinski rules of five.
HL‐60 cells (human leukemia cells, DSM No. ACC3) were obtained from DSMZ (German Collection of Microorganisms and Cell Cultures, Braunschweig, Germany) and cultivated in RPMI 1640 medium with 10% fetal bovine serum (FBS), both from PAA Laboratories, Cölbe, Germany) without the addition of antibiotics at 37°C in a humidified atmosphere containing 5% CO2. The assay was performed according to lit.

[2] = 48 h, read-out: Biological Activity MIC Yarrowia lipolytica

**Q.** For CCCCCCCCN1CCC(N2CCc3cc(OC)c(OC)cc3C2)CC1 [6e, 6,7‐Dimethoxy‐2‐(1‐octylpiperidin‐4‐yl)‐1,2,3,4‐tetrahydroisoquinoline], which MIC90 (A. fumigatus (A65)) is on record?
**A.** > 32 µg/mL

**Q.** What about the MIC90 (A. fumigatus (R7)) of the same molecule?
**A.** > 32 µg/mL

**Q.** And the MIC90 (R. microsporus)?
**A.** > 32 µg/mL

**Q.** What about the MIC90 (R. arrhizus (oryzae)) of the same molecule?
**A.** > 32 µg/mL

**Q.** What about the MIC (Yarrowia lipolytica; [2]) of the same molecule?
**A.** 1.6 µg/mL

**Q.** What about the MIC (Yarrowia lipolytica; 48 h, read-out: MIC100) of the same molecule?
**A.** 1.6 µg/mL

**Q.** What about the MIC (Yarrowia lipolytica; read-out: MIC100 (molar value in brackets)) of the same molecule?
**A.** 4.1 µM

**Q.** And the MIC90 (C. glabrata)?
**A.** > 32 µg/mL

**Q.** What about the MIC90 (A. fumigatus (R16)) of the same molecule?
**A.** > 32 µg/mL

**Q.** And the MIC90 (C. krusei)?
**A.** 8 µg/mL (≈ 20.6 µM)

**Q.** And the MIC90 (C. albicans)?
**A.** 32 µg/mL (≈ 82.3 µM)

**Q.** And the IC50 [1]?
**A.** > 100 µg/mL

**Q.** Which results are given for CCCCCCCCCCCC(=O)N1CCC(N2CCC3CCCCC3C2)CC1 (racemic) [5i, (±)‐1‐[4‐(Octahydroisoquinolin‐2(1H)‐yl)‐piperidin‐1‐yl]‐dodecan‐1‐one]?
**A.** MIC (Yarrowia lipolytica; [2]): > 100 µg/mL; MIC (Yarrowia lipolytica; 48 h, read-out: MIC100): > 100 µg/mL

**Q.** For CCCC(=O)N1CCC(N2CCc3cc(OC)c(OC)cc3C2)CC1 [5d, 1‐[4‐(6,7‐Dimethoxy‐3,4‐dihydroisoquinolin‐2(1H)‐yl)‐piperidin‐1‐yl]butan‐1‐one], which MIC (Yarrowia lipolytica; [2]) is on record?
**A.** > 100 µg/mL

**Q.** And the MIC (Yarrowia lipolytica; 48 h, read-out: MIC100)?
**A.** > 100 µg/mL

**Q.** With CCCCN1CCC(N2CCc3cc(OC)c(OC)cc3C2)CC1 [6d, 2‐(1‐Butylpiperidin‐4‐yl)‐6,7‐dimethoxy‐1,2,3,4‐tetrahydroisoquinoline] as the molecule, how does the MIC90 (A. fumigatus (A65)) read?
**A.** > 32 µg/mL

**Q.** And the MIC90 (A. fumigatus (R7))?
**A.** > 32 µg/mL

**Q.** And the MIC90 (R. microsporus)?
**A.** > 32 µg/mL

**Q.** And the MIC90 (R. arrhizus (oryzae))?
**A.** > 32 µg/mL

**Q.** And the MIC (Yarrowia lipolytica; [2])?
**A.** > 100 µg/mL

**Q.** What about the MIC (Yarrowia lipolytica; 48 h, read-out: MIC100) of the same molecule?
**A.** > 100 µg/mL

**Q.** What about the MIC90 (C. glabrata) of the same molecule?
**A.** > 32 µg/mL

**Q.** And the MIC90 (A. fumigatus (R16))?
**A.** > 32 µg/mL

**Q.** And the MIC90 (C. krusei)?
**A.** > 32 µg/mL

**Q.** What about the MIC90 (C. albicans) of the same molecule?
**A.** > 32 µg/mL

**Q.** And the IC50 [1]?
**A.** > 100 µg/mL

**Q.** With CCCC(=O)N1CCC(N2CCC3CCCCC3C2)CC1 (racemic) [5g, (±)‐1‐[4‐(Octahydroisoquinolin‐2(1H)‐yl)‐piperidin‐1‐yl]‐butan‐1‐one] as the molecule, how does the MIC (Yarrowia lipolytica; [2]) read?
**A.** > 100 µg/mL

**Q.** What about the MIC (Yarrowia lipolytica; 48 h, read-out: MIC100) of the same molecule?
**A.** > 100 µg/mL

**Q.** Which results are given for c1ccc(CN2CCC(N3CCC4CCCCC4C3)CC2)cc1 (stereo not drawn) [7c, 2‐(1‐Benzylpiperidin‐4‐yl)decahydroisoquinoline]?
**A.** MIC (Yarrowia lipolytica; [2]): > 100 µg/mL; MIC (Yarrowia lipolytica; 48 h, read-out: MIC100): > 100 µg/mL

**Q.** Which results are given for CC(C)(C)OC(=O)N1CCC(N2CCC3CCCCC3C2)CC1 (stereo not drawn) [3c, tert‐Butyl 4‐(octahydroisoquinolin‐2(1H)‐yl)piperidine‐1‐carboxylate]?
**A.** MIC (Yarrowia lipolytica; [2]): > 100 µg/mL; MIC (Yarrowia lipolytica; 48 h, read-out: MIC100): > 100 µg/mL

**Q.** Which MIC90 (A. fumigatus (A65)) does the source give for OC(Cn1cncn1)(Cn1cncn1)c1ccc(F)cc1F [FLZ, fluconazole, reference compound] here?
**A.** 32 µg/mL (≈ 104 µM)

**Q.** And the MIC90 (A. fumigatus (R7); A. fumigatus (R7), RPMI 1640, 2% glucose, read by eye and microscopically, read-out: MIC90)?
**A.** 16 µg/mL (≈ 52.2 µM)

**Q.** What about the MIC90 (R. microsporus; R. microsporus, RPMI 1640, 2% glucose, read by eye and microscopically, read-out: MIC90) of the same molecule?
**A.** > 32 µg/mL

**Q.** What about the MIC90 (R. arrhizus (oryzae); R. arrhizus (oryzae), RPMI 1640, 2% glucose, read by eye and microscopically, read-out: MIC90) of the same molecule?
**A.** > 32 µg/mL

**Q.** And the MIC90 (C. glabrata; C. glabrata, RPMI 1640, 2% glucose, 37°C, duplicate, read-out: MIC90)?
**A.** 16 µg/mL (≈ 52.2 µM)

**Q.** And the MIC90 (A. fumigatus (R16); A. fumigatus (R16), RPMI 1640, 2% glucose, read by eye and microscopically, read-out: MIC90)?
**A.** > 32 µg/mL

**Q.** What about the MIC90 (C. krusei; C. krusei, RPMI 1640, 2% glucose, 37°C, duplicate, read-out: MIC90) of the same molecule?
**A.** 8 µg/mL (≈ 26.1 µM)

**Q.** What about the MIC90 (C. albicans; C. albicans, RPMI 1640, 2% glucose, 37°C, duplicate, read-out: MIC90) of the same molecule?
**A.** 0.25 µg/mL (≈ 0.816 µM)

**Q.** For CCCCCCCCN1CCC(N2CCc3ccccc3C2)CC1 [6b, 2‐(1‐Octylpiperidin‐4‐yl)‐1,2,3,4‐tetrahydroisoquinoline], which MIC (Yarrowia lipolytica; [2]) is on record?
**A.** 100 µg/mL

**Q.** What about the MIC (Yarrowia lipolytica; 48 h, read-out: MIC100) of the same molecule?
**A.** 100 µg/mL

**Q.** With CCC(C)(C)c1ccc(CC(C)CN2C[C@@H](C)O[C@@H](C)C2)cc1 (stereo partly drawn) [Amorolfine, reference compound] as the molecule, how does the IC50 [1] read?
**A.** 17 µg/mL (≈ 53.5 µM)

**Q.** Which results are given for COc1cc2c(cc1OC)CN(C1CCN(C(=O)OC(C)(C)C)CC1)CC2 [3b, tert‐Butyl 4‐(6,7‐dimethoxy‐3,4‐dihydroisoquinolin‐2(1H)‐yl)piperidine‐1‐carboxylate]?
**A.** MIC (Yarrowia lipolytica; [2]): > 100 µg/mL; MIC (Yarrowia lipolytica; 48 h, read-out: MIC100): > 100 µg/mL

**Q.** For CCCCCCCCCCCC(=O)N1CCC(N2CCc3cc(OC)c(OC)cc3C2)CC1 [5f, 1‐[4‐(6,7‐Dimethoxy‐3,4‐dihydroisoquinolin‐2(1H)‐yl)piperidin‐1‐yl]dodecan‐1‐one], which MIC (Yarrowia lipolytica; [2]) is on record?
**A.** > 100 µg/mL

**Q.** And the MIC (Yarrowia lipolytica; 48 h, read-out: MIC100)?
**A.** > 100 µg/mL

Source: article PMC12531613, “Synthesis and Biological Evaluation of Novel 2‐(Piperidin‐4‐yl)‐1,2,3,4‐tetrahydroisoquinoline and 2‐(Piperidin‐4‐yl)decahydroisoquinoline Antimycotics” (Archiv Der Pharmazie, 2025)
